# Results as given in patent US11001569B2, “6-membered heteroaromatic substituted cyanoindoline derivatives as NIK inhibitors” (Janssen Pharmaceutica NV, priority 2016, dated 2021).
# Where “and” joins values, the source holds several entries; their conditions need not be identical. Equal entries are not always repeated. Where two headings read alike, the source gives them in different places.
# Columns and labels:
# [1] = molecular target: recombinant human NF-kappaB-inducing Kinase (NIK/MAP3K14) (Homo sapiens, UniProt Q99558); assay: Inhibition of auto-phosphorylation of recombinant human NIK/MAP3K14 activity (AlphaScreen); format: biochemical; conditions: 25 microM ATP, averaged over all measurements on all batches
# recombinant human NF-kappaB-inducing Kinase (NIK/MAP3K14), sequence (Q99558 whole entry): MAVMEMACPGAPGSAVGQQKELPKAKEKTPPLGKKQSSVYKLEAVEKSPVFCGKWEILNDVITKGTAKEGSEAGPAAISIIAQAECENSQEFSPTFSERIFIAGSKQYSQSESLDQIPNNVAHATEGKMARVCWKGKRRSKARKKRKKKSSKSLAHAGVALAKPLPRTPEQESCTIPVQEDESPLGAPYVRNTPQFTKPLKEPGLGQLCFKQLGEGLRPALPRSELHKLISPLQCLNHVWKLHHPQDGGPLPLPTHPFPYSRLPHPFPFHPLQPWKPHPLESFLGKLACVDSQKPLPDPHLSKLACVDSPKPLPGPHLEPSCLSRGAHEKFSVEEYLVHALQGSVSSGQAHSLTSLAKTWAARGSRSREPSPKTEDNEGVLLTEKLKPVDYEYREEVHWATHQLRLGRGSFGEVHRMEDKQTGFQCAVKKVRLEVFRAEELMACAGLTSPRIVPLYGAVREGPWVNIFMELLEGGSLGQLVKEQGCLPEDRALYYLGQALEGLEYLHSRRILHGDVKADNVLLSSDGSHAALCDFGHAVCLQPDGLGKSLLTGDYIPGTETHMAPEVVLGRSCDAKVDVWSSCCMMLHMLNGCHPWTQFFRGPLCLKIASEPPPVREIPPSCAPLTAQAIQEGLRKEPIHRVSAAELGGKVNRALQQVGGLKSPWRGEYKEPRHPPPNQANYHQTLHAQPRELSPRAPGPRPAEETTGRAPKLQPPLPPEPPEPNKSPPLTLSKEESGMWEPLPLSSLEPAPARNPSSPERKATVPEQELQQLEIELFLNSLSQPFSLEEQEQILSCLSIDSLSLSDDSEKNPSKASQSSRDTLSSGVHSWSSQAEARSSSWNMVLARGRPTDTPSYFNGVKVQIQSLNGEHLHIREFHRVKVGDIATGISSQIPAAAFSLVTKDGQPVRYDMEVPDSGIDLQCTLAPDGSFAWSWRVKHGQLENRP
# Description: Pharmacological Part Biological assay A Inhibition of auto-phosphorylation of recombinant human NF-kappaB-inducing Kinase (NIK/MAP3K14) Activity (AlphaScreen®)
# NIK/MAP3K14 auto-phosphorylation activity was measured using the AlphaScreen® (αscreen) format (Perkin Elmer). All compounds tested were dissolved in dimethyl sulfoxide (DMSO) and further dilutions were made in assay buffer. Final DMSO concentration was 1% (v/v) in assays. Assay buffer was 50 mM Tris pH 7.5 containing 1 mM EGTA (ethylene glycol tetraacetic acid), 1 mM DTT (dithiothreitol), 0.1 mM Na3VO4, 5 mM MgCl2, 0.01% Tween® 20. Assays were carried out in 384 well Alphaplates (Perkin Elmer). […] Incubations were initiated by addition of GST-tagged NIK/MAP3K14 enzyme, carried out for 1 h at 25° C. and terminated by addition of stop buffer containing anti-phospho-IKK Ser176/180 antibody. Protein A Acceptor and Glutathione-Donor beads were added before reading using an EnVision® Multilabel Plate Reader (Perkin Elmer). Signal obtained in the wells containing blank samples was subtracted from all other wells and IC50's were determined by fitting a sigmoidal curve to % inhibition of control versus Log10 compound concentration.
# [2] = test system: JJN-3 (NIK translocated) multiple myeloma cells; assay: Antiproliferative activity on JJN-3 multiple myeloma cells (CellTiter-Glo); format: cell-based, human; conditions: JJN-3 (NIK translocated) cells, 96 hr treatment, averaged values, read-out: JJN-3 Proliferation inhibition (IC50 (nM))
# Description: (§1) Determination of Antiproliferative Activity on JJN-3 (NIK Translocated) and KMS12-BM (NIK WT) Multiple Myeloma Cells
# (§2) All compounds tested were dissolved in DMSO and further dilutions were made in culture medium. Final DMSO concentration was 0.3% (v/v) in cell proliferation assays. Viability was assessed using CellTiter-Glo cell viability assay kit (Promega). […] Cells were routinely kept as suspension cells at 37° C. in a humidified 5% CO2 atmosphere. Cells were passaged at a seeding density of 0.2×10^6/ml twice a week. Cells were seeded in black tissue culture treated 96-well plates (Perkin Elmer). Densities used for plating ranged from 15000 (JJN3) to 20000 (KMS12BM) cells per well in a total volume of 135 μl medium. Drugs and/or solvents were added (15 μl) to a final volume of 150 μl. Following 96 hr of treatment, plates were removed from the incubator and allowed to equilibrate to room temperature for approx 10 min. 75 μl CellTiter-Glo reagent was added to each well that was then covered (Perkin Elmer Topseal) and shaken on plate shaker for 10 min. Luminescence was measured on a HTS Topcount (Perkin Elmer). […] For initial screening purposes, compounds were tested using a 9 point dilution curve (serial 1:3 dilutions). For each experiment, controls (containing no drug) and a blank incubation (containing cells read at the time of compound addition) were run in parallel. The blank value was subtracted from all control and sample values. For each sample, the mean value for cell growth (in relative light units) was expressed as a percentage of the mean value for cell growth of the control.
# [3] = test system: KMS12-BM (NIK WT) multiple myeloma cells; assay: Antiproliferative activity on KMS12-BM multiple myeloma cells (CellTiter-Glo); format: cell-based, human; conditions: Homo sapiens, KMS-12-BM, 96 h, 96 hr treatment, averaged values, read-out: KMS-12 Proliferation inhibition (IC50 (nM))
# Description: as §1, §2
IC50 [1] [nM],melting point,"IC50 ([2]; Homo sapiens, JJN-3, 96 h) [nM]",IC50 [3] [nM],IC50 [2] [nM],SMILES
4.9,213 °C,708,7410,,C[C@]1(CO)CNc2c(C#N)cc(-c3ccnc(Nc4cccnc4OC4CCOCC4)n3)cc21 [Compound 23]
9.1,138 °C,195,> 10000,,C[C@]1(CO)CNc2c(C#N)cc(-c3ccnc(Nc4cccnc4OCC4CC4)n3)cc21 [Compound 45]
64.6,88 °C,4570,4070,,COc1ncccc1Nc1nccc(-c2cc(C#N)c3c(c2)C(C)(COCCN2CCCC2)CN3)n1 (stereo not drawn) [Compound 118]
4.5,333 °C,~7080,> 10000,,Cc1cc(Nc2nccc(-c3cc(C#N)c4c(c3)C(C)(CO)CN4)n2)nc(C)n1 (stereo not drawn) [Compound 127]
3.3,> 250 °C,~5010,> 10000,,C[C@]1(CO)CNc2c(C#N)cc(-c3ccnc(Nc4cccn(CC(O)CO)c4=O)n3)cc21 (stereo partly drawn) [Compound 31i]
1.8,210 °C,3470,> 10000,,COc1ccncc1Nc1nccc(-c2cc(C#N)c3c(c2)[C@@](C)(CO)CN3)n1 [Compound 37]
28.8,125 °C,447,> 10000,,COCCNc1nc(OC(C)C)c(Nc2nccc(-c3cc(C#N)c4c(c3)C(C)(CO)CN4)n2)cc1Cl (stereo not drawn) [Compound 13]
14.8,220 °C,669,3160,,COc1ncccc1Nc1nccc(-c2cc(C#N)c3c(c2)C(C)(CN2CCNCC2)CN3)n1 (stereo not drawn) [Compound 111]
33.9,116 °C,1860,> 10000,,COc1ncccc1Nc1nccc(-c2cc(C#N)c3c(c2)C(C)(CNC2CC2)CN3)n1 (stereo not drawn) [Compound 110]
6.5,> 250 °C,1580,> 10000,,COc1ncc(Cl)cc1Nc1ncc(F)c(-c2cc(C#N)c3c(c2)C(C)(CO)CN3)n1 (stereo not drawn) [Compound 102]
3.6,277 °C and 280 °C,97,~7410,,Cc1ncc(Cl)cc1Nc1nccc(-c2cc(C#N)c3c(c2)C(C)(CO)CN3)n1 (stereo not drawn) [Compound 4]
3.6,295 °C,~427,> 10000,,Cn1cc(Cl)cc(Nc2nccc(-c3cc(C#N)c4c(c3)C(C)(CO)CN4)n2)c1=O (stereo not drawn) [Compound 15i]
11.2,> 250 °C,112,> 10000,,COc1ncc(Cl)cc1Nc1ncc(F)c(-c2cc(C#N)c3c(c2)[C@@](C)(CO)CN3)n1 [Compound 104]
148,227 °C,2510,> 10000,,Cc1ccnc(Nc2nccc(-c3cc(C#N)c4c(c3)C(C)(CO)CN4)n2)n1 (stereo not drawn) [Compound 126]
3.4,> 250 °C,275,2630,,COCCOc1ncccc1Nc1ncc(F)c(-c2cc(C#N)c3c(c2)[C@@](C)(CO)CN3)n1 [Compound 106]
95.5,190 °C,3470,> 10000,,COCCOc1nc(C(F)(F)F)ccc1Nc1nccc(-c2cc(C#N)c3c(c2)[C@@](C)(CO)CN3)n1 [Compound 53]
1,> 250 °C,120,1580,,COc1ncccc1Nc1ncc(F)c(-c2cc(C#N)c3c(c2)[C@@](C)(CO)CN3)n1 [Compound 103]
19.5,215 °C,79,> 10000,,COCCN(C)c1nc(OC)c(Nc2nccc(-c3cc(C#N)c4c(c3)[C@@](C)(CO)CN4)n2)cc1Cl [Compound 38]

IC50 [1] [nM],melting point,"IC50 ([2]; Homo sapiens, JJN-3, 96 h) [nM]",IC50 [3] [nM],IC50 [2] [nM],SMILES
15.9,220 °C,794,> 10000,,CCOc1ncc(Cl)cc1Nc1nccc(-c2cc(C#N)c3c(c2)[C@@](C)(CO)CN3)n1 [Compound 35]
3.3,> 250 °C,288,> 10000,,COc1ncc(F)cc1Nc1nccc(-c2cc(C#N)c3c(c2)[C@@](C)(CO)CN3)n1 [Compound 36]
79.4,152 °C,631,1230,,COc1ncc(Cl)cc1Nc1nccc(-c2cc(C#N)c3c(c2)C(C)(COCCN2CCCC2)CN3)n1 (stereo not drawn) [Compound 120]
8.3,254 °C,81,> 10000,,COc1ncc(Cl)cc1Nc1nccc(-c2cc(C#N)c3c(c2)C(C)(CO)CN3)n1 (stereo not drawn) [Compound 3]
129,106 °C,1290,2000,,COc1ncc(Cl)cc1Nc1nccc(-c2cc(C#N)c3c(c2)C(C)(COCCNC2CC2)CN3)n1 (stereo not drawn) [Compound 119]
85.1,95 °C,2040,> 10000,,COc1ncccc1Nc1nccc(-c2cc(C#N)c3c(c2)C(C)(COCCNC(C)C)CN3)n1 (stereo not drawn) [Compound 116]
12.9,120 °C,589,> 10000,,COCCNc1ccc(Nc2nccc(-c3cc(C#N)c4c(c3)C(C)(CO)CN4)n2)c(OC)n1 (stereo not drawn) [Compound 12]
10,203 °C,741,6310,,COc1ncccc1Nc1nccc(-c2cc(C#N)c3c(c2)C(C)(CNC(C)=O)CN3)n1 (stereo not drawn) [Compound 115]
9.3,217 °C,81,> 10000,,COc1nc(C2CCOCC2)ccc1Nc1nccc(-c2cc(C#N)c3c(c2)[C@@](C)(CO)CN3)n1 [Compound 44]
0.9,> 260 °C,1580,> 10000,,COc1cnccc1Nc1nccc(-c2cc(C#N)c3c(c2)[C@@](C)(CO)CN3)n1 [Compound 20]
6.2,154 °C,347,> 10000,,C[C@]1(CO)CNc2c(C#N)cc(-c3ccnc(Nc4cccnc4OC[C@@H]4CCCO4)n3)cc21 [Compound 42]
3.2,194 °C,813,3090,,C[C@]1(CO)CNc2c(C#N)cc(-c3ccnc(Nc4cccnc4O[C@H]4CCOC4)n3)cc21 [Compound 28]
22.9,146 °C,1820,> 10000,,COc1ncccc1Nc1nccc(-c2cc(C#N)c3c(c2)C(C)(CNCCS(C)(=O)=O)CN3)n1 (stereo not drawn) [Compound 112]
4.1,155 °C,794,> 10000,,C[C@]1(CO)CNc2c(C#N)cc(-c3ccnc(Nc4cccnc4O[C@H]4CCCOC4)n3)cc21 [Compound 26]
13.2,215 °C,1120,> 10000,,COCCOc1ccncc1Nc1nccc(-c2cc(C#N)c3c(c2)[C@@](C)(CO)CN3)n1 [Compound 47]
5.5,266 °C,372,> 10000,,COc1ncc(Cl)cc1Nc1nccc(-c2cc(C#N)c3c(c2)[C@@](C)(CO)CN3)n1 [Compound 14]
5.3,238 °C,219,427,,CCOC(=O)c1ccc(Nc2nccc(-c3cc(C#N)c4c(c3)C(C)(CO)CN4)n2)cn1 (stereo not drawn) [Compound 9]
16.2,200 °C,,> 10000,525,"Cc1ncc(Nc2nccc(-c3cc(C#N)c4c(c3)[C@@](C)(CO)CN4)n2)c(OCC2CCCO2)n1 (single isomer, unassigned) [Compound 137]"
